# In US20230399661A1, “SHUTTLE AGENT PEPTIDES OF MINIMAL LENGTH AND VARIANTS THEREOF ADAPTED FOR TRANSDUCTION OF CAS9-RNP AND OTHER NUCLEOPROTEIN CARGOS” (priority 2020, published 2023):
# Tested on: HeLa cells
# Assay: GFP-NLS transduction in the presence or absence of Cas9-RNP complex, flow cytometry
# Type: cell-based, Human
# Design: GFP transduction efficiency: concentration or dose not given beside the values
# Settings: for resistance/sensitivity of GFP transduction to inhibition by Cas9-RNP: presence vs absence of Cas9-RNP
# Procedure: HeLa cells were plated (20 000 cells/well) in a 96 well-plate the day prior to the experiment in DMEM containing 10% FBS. A mix was prepared containing a synthetic peptide shuttle agent (10-30 μM), the GFP-NLS (10 μM) with or without a Cas9-NLS recombinant protein (2.5 μM) complexed with a crRNA/tracrRNA (2 μM) targeting the beta-2 microglobulin (B2M) gene and completed to 50 μL with PBS. Cells were washed once with PBS and the shuttle/GFP-NLS/Cas9-RNP mix was added to the cells and incubated for one minute. Then 100 μL DMEM containing 10% FBS was added to the mix. Cells were then immediately washed once with PBS and incubated in DMEM containing 10% FBS for two hours. Cells were the analyzed by flow cytometry.
# To better understand the inhibitory effect of Cas9-RNP on shuttle agent transduction activity, HeLa cells were incubated with different peptides/shuttle agents and GFP cargo, in the presence or absence of Cas9-RNP, and delivery of GFP was assessed by flow cytometry, as described in Example 1. […] For some shuttle agents, the effect was particularly striking. For example, the GFP transduction efficiency for FSD268 decreased from 92% to 29%, the GFP transduction efficiency for FSD250 decreased from 83% to 13%, the GFP transduction efficiency for FSD10 decreased from 76% to 22%, and the GFP transduction efficiency for FSD395 decreased from 91% to 17%. […] Structure-activity relationships were explored further by repeating the above transduction experiments with shuttle agent variants sharing the same “core” amphipathic cationic alpha helical region as FSD10-15 (FIG. 4A), CM18 (FIG. 4B), and FSD356 (FIG. 4C).
Substance,resistance/sensitivity of GFP transduction to inhibition by Cas9-RNP,further results
CM18-L2-PTD4: CM18-based shuttle agent with lower C-terminal positive charge density (KWKLFKKIGAVLKVLTTGGGSGGGSYARAAARQARA; CM18-L2-PTD4),substantially more resistant to inhibition by Cas9-RNP,–
CM18-TAT: CM18-based shuttle agent having high C-terminal positive charge density (KWKLFKKIGAVLKVLTTGYGRKKRRQRRR; CM18-TAT),particularly marked sensitivities to inhibition by Cas9-RNP,–
"FSD10-15: 15-amino acid fragment of several longer shuttle agents, including FSD375, FSD10 and FSD210 (KWKLARAFARAIKKL; FSD10-15)",more resistant,GFP transduction efficiency (absence of Cas9-RNP): 21%; GFP transduction efficiency (presence of Cas9-RNP): 24%
FSD174: synthetic peptide shuttle agent having higher C-terminal positive charge density (LLKIWSRLIKIWTQGRRLGGSGGGSARAARQAR; FSD174),particularly sensitive to the inhibitory effect of Cas9-RNP,GFP transduction efficiency (absence of Cas9-RNP): 66%; GFP transduction efficiency (presence of Cas9-RNP): 11%; resistance/sensitivity of GFP transduction to inhibition by Cas9-RNP (listed as FSD 174): generally more sensitive to Cas9-RNP inhibition
FSD187: shuttle agent variant sharing the same core region as FSD174; higher C-terminal positive charge density (LLKIWSRLIKIWTQGRRLGARKPRKSRQ; FSD187),generally more sensitive to Cas9-RNP inhibition,–
FSD189: shuttle agent variant sharing the same core region as FSD174; higher C-terminal positive charge density (LLKIWSRLIKIWTQGRRLGRAQRAQRA; FSD189),generally more sensitive to Cas9-RNP inhibition,–
"FSD210: shuttle agent: FSD10-15 core, C-terminal glycine/serine-rich linker fused to a second cationic domain (KWKLARAFARAIKKLGGSGGGSRRLKAKRAKA; FSD210)",more sensitive to inhibition by Cas9-RNP,–
"FSD241: shuttle agent: FSD10-15 core, C-terminal glycine/serine-rich linker fused to a second cationic domain (KWKLARAFARAIKKLGGSGGGSYARAAARQARA; FSD241)",more sensitive to inhibition by Cas9-RNP,–
FSD246: shuttle agent with N-terminal segment identical to FSD356; increased C-terminal positive charge density (KWKLLKLWSRLLKLWGGSGGGSYARAAARKAKRA; FSD246),increased shuttle agent sensitivity to inhibition by Cas9-RNP,–
FSD251: shuttle agent containing three negatively-charged glutamate (E) residues in the peptide's C-terminal region (KWKLLKLWSRLLKLWGGSGGGSAEAAEQAE; FSD251),least sensitivity to Cas9-RNP inhibition,–
FSD268: synthetic peptide shuttle agent (KWKLLKLWSRLLKLWGGSGGGSQARAQARQAR; FSD268),–,GFP transduction efficiency (absence of Cas9-RNP): 92%; GFP transduction efficiency (presence of Cas9-RNP): 29%
"FSD296: shuttle agent with N-terminal segment identical to FSD356; polar residues (e.g., Q) between the C-terminal positively-charged residues (KWKLLKLWSRLLKLWQQGGSGGGSQARAQARQAR; FSD296)",increased shuttle agent sensitivity to inhibition by Cas9-RNP,–
FSD356: shuttle agent whose last three C-terminal residues are QAG (KWKLLKLWSRLLKLWGGSGGGSQAG; FSD356),more resistant,GFP transduction efficiency (presence of Cas9-RNP): 51%
FSD357: FSD356 with the last three C-terminal residues (QAG) replaced with three positively-charged arginine residues (RRR) (KWKLLKLWSRLLKLWGGSGGGSRRR; FSD357),–,GFP transduction efficiency (presence of Cas9-RNP): 4%
FSD422: FSD10-15 with flanking histidine residues in place of the glycine/serine-rich residues (HHHHHHKWKLARAFARAIKKLHHHHHH; FSD422),did not maintain the same level of Cas9-RNP resistance,–
FSD424: FSD10-15 with flanking glycine/serine-rich residues (KWKLARAFARAIKKLGGSGGGSGGSGGGS; FSD424),retained the peptide's resistance to Cas9-RNP,GFP transduction activity relative to FSD10-15 (FIG. 4A): improving GFP transduction activity over FSD10-15
"FSD432: shuttle agent: FSD10-15 core, C-terminal glycine/serine-rich linker fused to a second cationic domain (KWKLARAFARAIKKLGGSGGGSQAKAQAKQAK; FSD432)",more sensitive to inhibition by Cas9-RNP,–
FSD440: CM18 with flanking glycine/serine-rich residues (GGSGGGSKWKLFKKIGAVLKVLTTGGGSGGGS; FSD440),retained the peptide's resistance to Cas9-RNP,"GFP delivery score (FIGS. 3 and 4B, presence or absence of Cas9-RNP not stated): 3.6"
FSD446: shuttle agent with N-terminal segment identical to FSD356 and a C-terminal non-cationic hydrophilic segment (KWKLLKLWSRLLKLWGGSGGGSHTSDQTN; FSD446),–,GFP transduction efficiency (presence of Cas9-RNP): 34%
His-CM18-9Arg: CM18-based shuttle agent having high C-terminal positive charge density (HHHHHHKWKLFKKIGAVLKVLTTGRRRRRRRRR; His-CM18-9Arg),particularly marked sensitivities to inhibition by Cas9-RNP,–
His-CM18-TAT: CM18-based shuttle agent having high C-terminal positive charge density (HHHHHHKWKLFKKIGAVLKVLTTGYGRKKRRQRRR; His-CM18-TAT),particularly marked sensitivities to inhibition by Cas9-RNP,–
His-CM18-Transportan: CM18-based shuttle agent with lower C-terminal positive charge density (HHHHHHKWKLFKKIGAVLKVLTTGGWTLNSAGYLLKINLKALAALAKKIL; His-CM18-Transportan),substantially more resistant to inhibition by Cas9-RNP,–
